Experimental data as given in PubChem BioAssay AID179 (DTP/NCI, 2004).
The source made the active and inactive calls.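 The calls were made as follows: active = compounds giving half or more protection of infected cells from virus-caused growth loss, again on retest; inactive = the rest.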 Where a SMILES comes first, the peptide text is derived from it.

System: CEM cells HIV-1 protection, formazan growth assay
Experiment: NCI AIDS Antiviral Assay
Details: for IC50: measured here: growth of uninfected CEM cells
Outline: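 Human CEM cells, uninfected and HIV-1-infected, exposed to five drug concentrations; growth measured by soluble formazan assay and scored as percent protection from infection, with protecting compounds retested.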

| SMILES | EC50 [µM] | IC50 [µM] | outcome |
| --- | --- | --- | --- |
| O=C(O)/C=C/C(=O)Nc1ccccc1-n1cccc1 | > 200 | > 200 | – |
| Cn1cc(NC(=O)c2cc(NC(=O)c3cc(NC(=O)c4ccc(C(=O)Nc5cn(C)c(C(=O)Nc6cn(C)c(C(=O)Nc7cn(C)c(C(=O)NCCC(=N)N)n7)n6)n5)cc4)cn3C)cn2C)cc1C(=O)NCCC(=N)N | > 33.1 | 6.61 | – |
| O=c1c(SCc2ccc(Cl)cc2Cl)c(SCc2ccc(Cl)cc2Cl)cnn1-c1ccccc1 | > 46.8 | > 46.8 | – |
| CCC(=O)c1cn(C)c(=O)c2ccccc12 | – | – | inactive |
| CCOC(=O)CCC(NC(=O)c1ccc(OCc2ccc3nc(-c4ccccc4)c(Cl)nc3c2)cc1)C(=O)OCC (stereo unspecified) | > 200 | 43.7 | – |
| NN1CCc2ccccc2C1 | > 200 | > 200 | – |
| O=C(Nc1noc(-c2ccccc2)n1)c1ccccc1CNc1noc(-c2ccccc2)n1 | > 200 | > 200 | – |
| CCCCC1Sc2cc(OC)cc3c2N(CCN3)C1=O (stereo unspecified) | > 200 | 28.2 | – |
| CC1=C(C(=O)NNS(=O)(=O)c2ccc(C)cc2)CC(C(=O)NNS(=O)(=O)c2ccc(C)cc2)=C(C)N1 | > 13.5 | > 13.5 | – |
| O=S1(=O)c2ccc(cc2)N=CC=Nc2ccc1cc2 | > 33.1 | > 33.1 | – |
| O=C(NCCCN1CCN(CCCNC(=O)c2ccc(N=Nc3ccccc3)cc2)CC1)c1ccc(N=Nc2ccccc2)cc1 | > 100 | 53.7 | – |
| O=C1NC(=O)C(=Cc2ccccc2Cl)C(=O)N1 | > 269 | 2.63 | – |
| CCOP(=O)(OCC)/C(C#N)=C/c1cccc(OC)c1 | > 229 | > 229 | – |
| O=C(O)CCC(NC(=O)c1ccc(Oc2nc3ccccc3nc2-c2ccccc2)cc1)C(=O)O (stereo unspecified) | > 200 | > 200 | – |
| CNc1ccc(/C=C2\C=Cc3ccccc32)cc1I | > 20 | 3.39 | – |
| N/N=C1\C(=O)N(C2CCCCCC2)C(=O)C1C(=O)NC1CCCCCC1 (stereo unspecified) | > 14.5 | > 14.5 | – |
| C=CC(C)(C)C(=C)C(=O)Nc1ccccc1I | > 200 | > 200 | – |
| CCCCCCCCCC/C=C/CC(=O)SCCNC(=O)CCNC(=O)[C@@H](O)C(C)(C)COP(=O)(O)OP(=O)(O)OCC1OC(n2cnc3c(N)ncnc32)C(O)C1OP(=O)(O)O (stereo partly specified) | – | – | inactive |
| COCn1c2ccccc2c2nc(-c3ccncc3)nc(-c3ccncc3)c21 | > 3.98 | > 3.98 | – |
| Cc1cc(-c2ccco2)oc(=O)c1NC(=O)c1ccccc1 | > 200 | 25.1 | – |
| Cc1cc2c(cc1C)C(=O)C(=O)N2 | > 148 | > 148 | – |

| SMILES | EC50 [µM] | IC50 [µM] | outcome |
| --- | --- | --- | --- |
| C[N+]12CN3CN(C1)S(=O)(=O)N(C3)C2 | – | – | inactive |
| CC(C)(C)CC(C)(C)c1cc2c(O)c(c1)Cc1cc(C(C)(C)CC(C)(C)C)cc(c1O)Cc1cc(C(C)(C)CC(C)(C)C)cc(c1O)Cc1cc(C(C)(C)CC(C)(C)C)cc(c1O)Cc1cc(C(C)(C)CC(C)(C)C)cc(c1O)Cc1cc(C(C)(C)CC(C)(C)C)cc(c1O)C2 | > 7.24 | > 7.24 | – |
| O=S(=O)(C/C(=N\O)c1ccccc1)c1ccccc1 | > 324 | 182 | – |
| [O-]c1on[n+]2c1CCCC2 | – | – | inactive |
| ON=C(CC(O)(C(F)(F)Cl)C(F)(F)Cl)CC(O)(C(F)(F)Cl)C(F)(F)Cl | > 200 | 8.71 | – |
| CC(C)OP(=O)(OC(C)C)c1ncn(-c2ccc([N+](=O)[O-])cc2)n1 | > 513 | 468 | – |
| CC(/C=N\NC(=S)N(C)C)=N/NC(=S)N(C)C | > 2 | 0.347 | – |
| Cc1cc(-c2cccs2)oc(=O)c1NC(=O)c1ccccc1 | > 200 | 26.9 | – |
| COc1ccc2c(c1)CC1c3c(ccc(OC)c3O)CC2N1C (stereo unspecified) | > 43.7 | 20.4 | – |
| CCOc1ccccc1N=NC1C(=O)N(C(=O)CC(=O)Nc2ccccc2OC)N=C1C (stereo unspecified) | > 200 | > 200 | – |
| [Au+].[Au+].[Au+].[c-]1nccn1Cc1ccccc1.[c-]1nccn1Cc1ccccc1.[c-]1nccn1Cc1ccccc1 | > 3.55 | > 3.55 | – |
| Cc1ccc2[nH]c(=O)c(C(C#N)c3ccccc3)nc2c1 (stereo unspecified) | – | – | inactive |
| CC(C)(C)OC(=O)NC(Cc1cnc[nH]1)C(=O)N1CCCC1C(N)=O (stereo unspecified) | > 200 | > 200 | – |
| O=C(/C=C/c1ccc(OCc2ccccc2)c(OCc2ccccc2)c1)OCc1ccccc1 | > 200 | > 200 | – |
| Cc1cnoc1/N=C1\C=C(Nc2oncc2C)C(=O)c2ccccc21 | > 4.37 | > 4.37 | – |
| O=C(O)CCc1nc(-c2ccccc2)c(-c2ccccc2)o1 | > 200 | > 200 | – |
| CCOC(=O)c1cn2c(nc1=O)N[C@H]1CCCC[C@@H]12 | > 200 | > 200 | – |
| Cc1ccc(NC=O)cc1F | – | – | inactive |
| NC(=S)C(=S)N=Cc1c(N)[nH]n(-c2ccccc2)c1=O | > 120 | 70.8 | – |
| O=C(O)Cn1cnc2c(=O)[nH]c(Nc3ccccc3)nc21 | > 200 | > 200 | – |
| CC(=O)CCCCC(=O)Nc1ccc(CC(NC(=O)OC(C)(C)C)C(=O)NCC(=O)OCc2ccccc2)cc1 (stereo unspecified) | > 200 | 12.9 | – |

| SMILES | EC50 [µM] | IC50 [µM] | outcome |
| --- | --- | --- | --- |
| CC(=O)OCCc1cccnc1/C=N/O | > 1200 | 204 | – |
| Cc1nc(-c2cccnc2)sc1C(=O)/C=C/c1cccc([N+](=O)[O-])c1 | > 74.1 | > 74.1 | – |
| FC(F)(Sc1ncc[nH]1)c1nc2ccccc2o1 | 43.7 | > 200 | – |
| COc1ccc(N2C(=O)C(=O)N(c3ccc(N=Nc4ccccc4)cc3)C2=S)cc1 | > 200 | 11.7 | – |
| O=S1c2ccccc2N=C(c2ccc3ccccc3c2)CC1C1=CC=CCC1 (stereo unspecified) | > 18.6 | > 18.6 | – |
| O=c1cc2ccccc2nn1Cc1ccccc1 | > 21.9 | > 21.9 | – |
| CCOC(=O)COc1ccc(OC)c2c1C(=O)CCC2 | – | – | inactive |
| C[C@]12CC[C@H](CCC=C(c3cc(Cl)c(O)c(C(=O)O)c3)c3cc(Cl)c(O)c(C(=O)O)c3)C[C@@H]1CC[C@@H]1[C@@H]2CC[C@]2(C)[C@@H](CCC=C(c3cc(Cl)c(O)c(C(=O)O)c3)c3cc(Cl)c(O)c(C(=O)O)c3)CC[C@@H]12 | 6.61 | 110 | – |
| CCOC(=O)C(=O)Nc1ccccc1C | > 34.7 | > 34.7 | – |
| Cc1cc(N(CCC#N)CCC#N)ccc1/C=C1N=C(/C=C/c2ccccc2)OC(=O)N\1 | > 3.39 | > 3.39 | – |
| CCOC(=O)C1=C(C)NC2=C(C(=O)CC(C)(C)C2)C1CCSC (stereo unspecified) | > 200 | > 200 | – |
| O=C1c2ccccc2C(=O)c2c(O)c(NCCCNCCO)cc(O)c21 | – | – | inactive |
| CC(=O)OC1CC2C(C)(C)C(=O)C=C[C@]2(C)C2CCC3(C)C(c4ccoc4)[C@@H](O)[C@H]4O[C@]43[C@]12C (stereo partly specified) | > 57.5 | 6.17 | – |
| CC1=Nc2cc(N)nn2C(=O)C1 | > 200 | > 200 | – |
| CC12CCC3CCCCC3(OO1)[C@@H](OCc1ccccc1)O2 (stereo partly specified) | > 29.5 | > 29.5 | – |
| CCOC(=O)C1SC(=Nc2ccc(C)c(C)c2)N=C1C (stereo unspecified) | > 18.2 | > 18.2 | – |
| COc1cc(Nc2cnc3cc(N)ccc3n2)cc(OC)c1OC | > 200 | > 200 | – |
| Nc1ccc(S(=O)(=O)c2ccc(N)cc2)cc1 | – | – | inactive |
| N#CNC(N)=NCCO | > 692 | > 692 | – |
| Cc1ccc(S(=O)(=O)OCC23CCC(CC2)C2CC23)cc1 (stereo unspecified) | > 100 | 70.8 | – |
| CC(Cl)CC(=O)OCC1CCCN2CCCCC12 (stereo unspecified) | > 200 | > 200 | – |

| SMILES | EC50 [µM] | IC50 [µM] | outcome |
| --- | --- | --- | --- |
| COC(=O)C1(F)C(=O)NC(=O)NC1O (stereo unspecified) | > 200 | 91.2 | – |
| COc1ccc(/C=C/C(=O)c2ccc(OC(=O)/C=C/c3ccccc3)cc2)cc1 | > 200 | 9.12 | – |
| CC1=CC(C)(C)NN1C1=NS(=O)(=O)c2ccccc2N1C | > 200 | > 200 | – |
| CC(C)OC(=S)SSC(=S)OC(C)C | > 200 | 6.92 | – |
| CCNCC(O)c1ccc(N)c([N+](=O)[O-])c1 (stereo unspecified) | > 200 | > 200 | – |
| CCOc1ccc(NC(=O)C(=O)C(C(=O)c2ccc3ccccc3c2)C2OC(=O)c3ccccc32)cc1 (stereo unspecified) | > 52.5 | 45.7 | – |
| C[N+](C)(C)CC1C2C=CC(C2)C1CO (stereo unspecified) | > 275 | > 275 | – |
| CCC(C)C(NC(=O)C(N)CCCCN)C(=O)NC(CCC(=O)O)C(=O)NC(CO)C(=O)NC(C)C(=O)NC(C(=O)NC(CC(N)=O)C(=O)NC(CC(C)C)C(=O)NC(CO)C(=O)NC(CCC(N)=O)C(=O)O)C(C)O (stereo unspecified) (H-KIESATNLSQ-OH; configuration not given here) | > 57.5 | > 57.5 | – |
| CN=c1sc2c(n1C)C(=O)c1ccccc1C2=O | > 200 | 9.33 | – |
| C=C(C)Cn1c(N)c(N=O)c(=O)n(CC)c1=O | > 200 | 158 | – |
| O=C(c1ccccc1)n1[nH]c(=O)n(-c2ccc(Cl)cc2)c1=O | > 200 | > 200 | – |
| CCOC(=O)Cc1cc(=O)[nH]n(-c2ccccc2)c1=O | – | – | inactive |
| Cc1ccc(S(=O)(=O)n2c3c(c4ccccc42)CCN2C(=O)C(S(=O)(=O)c4ccccc4)=CCC32)cc1 (stereo unspecified) | > 200 | 0.589 | – |
| S=C1CSc2c(cnc3ccccc23)N1 | > 200 | 105 | – |
| O=C1c2cc([N+](=O)[O-])cnc2S(=O)(=O)N1c1ccc(Oc2ccccc2)cc1 | > 200 | 105 | – |
| CCCCCCCCCc1cc(O)c(O)cc1CCCCCCCCC | > 100 | 47.9 | – |
| CCCCCCCCCCCCCCCCCCCCOC1OC(COC(C)=O)C(OC(C)=O)C(OC(C)=O)C1OC(C)=O (stereo unspecified) | > 35.5 | > 35.5 | – |
| CSc1nc2c3ccccc3ccn2c1C(=O)N/N=C/c1ccccc1 | > 100 | > 100 | – |
| CNC(=O)O/N=C(C)/C(C)=N/OC(=O)NC | – | – | inactive |
| Cc1ccc2c(C3Cc4ccccc4N3C(=O)/C=C\C(=O)O)c(C)[nH]c2c1 (stereo unspecified) | > 363 | 60.3 | – |
| CC(C)CC(NC(=O)C(Cc1ccc(O)cc1)NC(=O)C(CO)NC(=O)C(CCC(=O)O)NC(=O)C1CCCN1C(=O)C(CC(C)C)NC(=O)C(C)NC(=O)CNC(=O)C(N)CCC(=O)O)C(=O)NCC(=O)O (stereo unspecified) (H-EGALPESYLG-OH; configuration not given here) | – | – | inactive |
